Measurements: patent US20200048237A1, “A Free Base Oxazine Derivative in Crystalline Form” (NOVARTIS AG, priority 2017, published 2020)

Columns and labels:
[1] = Drug-drug interaction study in healthy volunteers: plasma PK of Compound 1 alone and with strong CYP3A4 inducer rifampicin; format: in vivo, human; conditions: with rifampicin 600 mg q.d. vs Compound 1 alone
[2] = Drug-drug interaction study in healthy volunteers: plasma PK of Compound 1 alone and with strong CYP3A4 inhibitor itraconazole; format: in vivo, human; conditions: with itraconazole 200 mg q.d. vs Compound 1 alone
[3] = Chemical stability of crystalline Form A exposed to high temperature and/or humidity (UPLC purity, XRPD solid form); format: physicochemical
Protocol: The stability of crystalline Form A was tested by exposing the crystalline material to high temperature and/or humidity for at least three weeks. After storage at high temperature and/or humidity, bulk crystalline material was sampled and dissolved in acetonitrile:water (80:20) and the purity analysed in a Waters Aquity UPLC using the following conditions: […]

C[C@@]1(c2nc(NC(=O)c3ncc(C(F)(F)F)cc3Cl)ccc2F)CO[C@@](C)(C(F)(F)F)C(N)=N1 [Compound 1, N-(6-((3R,6R)-5-amino-3,6-dimethyl-6-(trifluoromethyl)-3,6-dihydro-2H-1,4-oxazin-3-yl)-5-fluoropyridin-2-yl)-3-chloro-5-(trifluoromethyl)picolinamide]
Decrease of mean AUC of Compound 1 [1]: 5-6 fold
Decrease of mean Cmax of Compound 1 [1]: 2.5 fold
Increase of mean AUC of Compound 1 [2]: 2-3 fold
Increase of mean Cmax of Compound 1 [2]: 25%

C[C@@]1(c2nc(NC(=O)c3ncc(C(F)(F)F)cc3Cl)ccc2F)CO[C@@](C)(C(F)(F)F)C(N)=N1 [Form A, N-(6-((3R,6R)-5-amino-3,6-dimethyl-6-(trifluoromethyl)-3,6-dihydro-2H-1,4-oxazin-3-yl)-5-fluoropyridin-2-yl)-3-chloro-5-(trifluoromethyl)picolinamide]
Solid State Form ([3]; RT, exposure time 0): Crystalline
Thermodynamic stability among polymorphs ([3]; compared with Form B, hydrate Form HA and amorphous form): most thermodynamically stable polymorph

C[C@@]1(c2nc(NC(=O)c3ncc(C(F)(F)F)cc3Cl)ccc2F)CO[C@@](C)(C(F)(F)F)C(N)=N1 [Form B, N-(6-((3R,6R)-5-amino-3,6-dimethyl-6-(trifluoromethyl)-3,6-dihydro-2H-1,4-oxazin-3-yl)-5-fluoropyridin-2-yl)-3-chloro-5-(trifluoromethyl)picolinamide]
Solid form stability by XRPD analysis ([3]; same conditions as Table 12 (high temperature and/or humidity)): conversion into Form A occurred
